Laboratory results: patent US10472341B2, “Bicyclic tetrahydrothiazepine derivatives useful for the treatment of neoplastic and/or infectious diseases” (APEIRON BIOLOGICS AG, priority 2015, dated 2019)
Where a name gives a salt, the structure may show the parent alone.

Test system: OT-I T cells
Assay: OT-I transfer to mice with B16-F10-OVA tumors: tumor antigen-specific T cell proliferation
Type: in vivo, mouse
Conditions: B16-F10-OVA tumor bearing mice; for OT-I T cell proliferation: 10 mg/kg orally; for Proliferation [% proliferated OT-I T cells]: 10 mg/kg dosed orally
Experimental: • Single cell suspension of splenocytes was prepared from the spleen by rinsing cells through a sterile 70 μm filter with PBS • Cells were collected by centrifugation in an 15 ml tube, the cell pellet was resuspended in 1 ml of Erylyse buffer and incubated at room temperature for 5 minutes, tubes were filled up with PBS and cells were washed twice • Cells were counted and resuspended in the desired buffer volume for MACS-enrichment or flow cytometric analysis Isolation of CD4 T Cells from OT-II Transgenic Mice • Splenocytes were resuspended in MACS buffer ([…] MACS-buffer/10^7 cells) • CD4 T cells were isolated using the CD4 T cell isolation kit (Miltenyi) with LS-columns following manufacturer's recommendations CFSE-Labeling of T Cells • Cells were resuspended in PBS with 0.1% BSA at 1×10^7 cells/ml and CFSE-solution was added to final concentration of 2.5 μM CFSE • Incubated for 10 min at 37° C., swung each 2 min • Same volume of FCS added and incubated for 5 min at room temperature • Cells were washed twice with RMPI-10% FCS medium • Cells were counted and resuspended in PBS or medium at desired concentration OT-II Transfer • Day 0: OT-II cells were transferred in PBS (3*10^6. Cells in 100 μl PBS) by retro-orbital injection • Day 1: WT mice got OVA vaccinated (subcut. flank, 10 μg LPS, 2 μg OVA per animal) • 2 & 4 h later compounds were administrated; for oral dosing compound was used as suspension (0.5% methylcellulose in water), for i.v. dosing compound was solubilized in DMSO and diluted with PBS • Day 2: compounds were administrated twice in the morning (with 2 h time interval) • Day 3: Mice were sacrificed & splenocytes were isolated • T cell proliferation & phenotype was determined by flow cytometry • Flow cytometry-Staining (all Abs purchased from eBioscience and used as recommended by the manufacturer): B220-eF450, CD4-PE, CD25PerCPCy5.5, CD69-PC7, TCRVa2-APC, CD8-AF700, CD3-eF780; CFSE; 7-AAD • Acquisition on Beckman-Coulter Gallios, Analysis using Kaluza Software OT-I Transfer to Mice with B16-F10-OVA Tumors • Day 0: 100000 B16-F10-OVA tumor cells were inoculated subcutaneously at the flank of WT-mice • Day 7: OT-I cells were transferred in PBS (3*10^6. […]

## N[C@H]1CS(=O)(=O)c2cc(F)c(C(=O)NC3CC3(F)F)cc2N(Cc2ccc(Cl)cc2)C1=O (stereo partly drawn) [Example 1, (3R)-3-amino-5-[(4-chlorophenyl)methyl]-N-(2,2-difluorocyclopropyl)-8-fluoro-1,1,4-trioxo-2,3,4,5-tetrahydro-1λ^6,5-benzothiazepine-7-carboxamide hydrochloride]
spleen
  OT-I T cell proliferation: significantly (p=0.006) increased
tumor-draining lymphnodes
  OT-I T cell proliferation: highly significantly (p=0.0002) enhanced
Lymph node
  Proliferation [% proliferated OT-I T cells]: 12.28%
Spleen
  Proliferation [% proliferated OT-I T cells]: 8.62%
